Assay results reported in US20220062296A1, “COMBINATIONS OF GABAA ALPHA 5 AGONISTS AND SV2A INHIBITORS AND METHODS OF USING IN THE TREATMENT OF COGNITIVE IMPAIRMENT” (AGENEBIO, INC., priority 2020, published 2022).

Tests used:
Type in all cases: in vivo, rat
[1] = test system: aged-impaired rats; assay: Radial arm maze with 5-hr delay, acute Compound 1 via PO; settings: Compound 1 10 mg/kg PO, vs vehicle
Description: Food-deprived aged rats maintained at approximately 85% free-feeding weights were tested for their hippocampal-dependent memory in a radial arm maze task under varying doses of Compound 1 (a GABAA α5 receptor agonist):
The radial arm maze apparatus used consisted of eight equidistantly spaced arms. An elevated maze arm (7 cm width×75 cm length) projected from each facet of an octagonal center platform (30 cm diameter, 51.5 cm height). Clear side walls on the arms were 10 cm high and are angled at 65° to form a trough. A food well (4 cm diameter, 2 cm deep) was located at the distal end of each arm. Froot Loops™ (Kellogg Company) were used as rewards. Blocks constructed of Plexiglass™ (30 cm height×12 cm width) could be positioned to prevent entry to any arm. Numerous extra maze cues surrounding the apparatus were also provided. The rats were initially subjected to pre-training (Chappell et al., 1998). Pre-training consisted of a habituation phase, a training phase on the standard win-shift task and another training phase in which a progressively longer delay was imposed between presentation of a subset of arms designated by the experimenter (five arms available and three arms blocked) and completion of the eight-arm win-shift task (i.e., with all eight arms available).
In the habituation phase, rats were familiarized to the maze for a 10-minute session on several days. […]

[2] = test system: aged-impaired rats; assay: Radial arm maze, Compound 1 IP alone and in combination with levetiracetam
[3] = test system: aged-impaired rats; assay: Water maze probe test, acute and chronic Compound 1
Excerpt: Rats were trained and tested in a novel water maze environment to assess the effect of the treatments. The water maze used here was housed in a different room and was surrounded by curtains with a novel set of patterns relative to the maze used for initial assessment of cognitive status. The training and testing protocol used was identical to the spatial learning-activated protocol described in Haberman et al., (2008, Proceedings of the National Academy of Sciences USA, 105, 10601-10606). The task required rats to swim to a […] escape platform at a fixed location in the presence of spatial cues for 8 training trials with an inter-trial interval of 8 min. An hour after the last training trial, rats were given a probe test in the absence of the escape platform (free swim) to assess the memory of the platform location as measured by time spent searching at the target location.
To assess the acute and chronic effects of Compound 1 treatment, rats received 15-16 days of drug injections with assessment on the water maze on the first day (acute effect) and last day (chronic effect) of treatment. Different surrounding spatial cues and escape location in the water maze were used for the initial and subsequent assessments. Compound 1 was given at 10 mg/kg using intraperitoneal injection (IP) at a volume of 1 ml/kg. […]

## COCc1nnc2n1Cc1c(C#Cc3cnc(OC)s3)ncn1-c1ccc(Cl)cc1-2 [Compound 1]
[1]
  number of errors in the radial arm maze: fewer errors
[2]; 2.5 mg/kg IP
  efficacy of Compound 1 on its own in the radial arm maze: subtherapeutic
[2]; 5 mg/kg IP
  efficacy of Compound 1 on its own in the radial arm maze: subtherapeutic
[3]; acute, Compound 1 10 mg/kg IP (first day)
  time in the target quadrant of the Morris Water Maze: spent more time in the target quadrant
[3]; chronic, Compound 1 10 mg/kg IP (last day of 15-16 days)
  time in the target quadrant of the Morris Water Maze: spent more time in the target quadrant
